Assay results reported in US12138256B2, “Treatment of cardiopulmonary disorders” (Bayer Aktiengesellschaft, priority 2021, dated 2024).
Values joined by “and” are separate entries in the source; they are usually repeats but may differ in a detail not shown here. Equal entries are not always repeated. Where two headings read alike, the source gives them in different places.

What was measured:
rabbit saphenous artery = assay: Vasorelaxant effect in vitro: phenylephrine-induced contraction of rabbit saphenous artery rings (C-1.1); conditions: Oryctolagus cuniculus, read-out: IC50, inhibition of phenylephrine induced contractions of rabbit saphenous artery rings
Experimental: Rabbits were anaesthetized and sacrificed by intravenous injection of thiopental sodium (about 50 mg/kg) and exsanguinated. The saphenous artery was removed and divided into rings 3 mm wide. The rings were mounted singly on in each case a pair of triangular hooks open at the end and made of 0.3 mm-thick special wire (Remanium®). Each ring was placed under an initial tension in 5 ml organ baths with Krebs-Henseleit solution which was at 37° C., was gassed with carbogen and had the following composition: NaCl 119 mM; KCl 4.8 mM; CaCl2)×2 H2O 1 mM; MgSO4×7 H2O 1.4 mM; KH2PO41.2 mM; NaHCO325 mM; glucose 10 mM; bovine serum albumin 0.001%. The force of contraction was detected with Statham UC2 cells, amplified and digitized via A/D converters (DAS-1802 HC, Keithley Instruments, Munich) and recorded in parallel on chart recorders. Contractions were induced by addition of phenylephrine.
The concentration necessary to reduce the contraction reached in the preceding control by 50% was calculated from this (IC50). The standard application volume was 5 μl. The proportion of DMSO in the bath solution corresponded to 0.1%.

[1] = Protein binding via Transil assay, monkey plasma; assay type: in vitro ADME; conditions: Monkey Cynomolgus plasma
Description: The distribution of a test substance between Transil® (phosphatidylcholine lipid bilayers immobilized on silica beads) and plasma is a characteristic feature of any pharmaceutical compound and is dependent on its extent of binding to plasma proteins. By comparing the distribution between Transil® and buffer with the distribution between Transil® and plasma of any species of interest, the unbound fraction in the plasma of the respective animal species can be calculated in vitro. The respective plasma and buffer concentrations were determined via a radioactivity analysis. A detailed description of the method and its validation was published by Schuhmacher et al. (2).

[2] = Stability of the crystalline form during micronization (spiral jet mill, XRPD); assay type: physicochemical
Description: Generally no amorphization even partial nor form conversion should happen during the necessary micronization step.
The corresponding batches (examples 8a-8d) were micronized using a 50 mm spiral jet mill and pressurized nitrogen with the following parameters (see table 16b).
The corresponding batches were micronized using a 100 mm spiral jet mill and pressurized nitrogen with the following parameters (see table 16c).

[3] = tested on: hypoxia induced PAP increase in conscious dogs; assay: Haemodynamics in conscious hypoxia challenged dogs (C-2.2); assay type: in vivo, dog; set-up: PAP, absolute values for each animal: unit: mmHg; conditions: for mPAP decrease during Hypoxia, each animal / mPAP decrease during Hypoxia, mean +/− SEM: n = 3
Experimental: Experiments were carried out in anesthetized Göttingen minipigs, anesthetized rats and conscious, telemetrically instrumented dogs. Acute pulmonary hypertension was induced for example by infusion of a thromboxane A2 analogon, by acute hypoxia treatment or hypoxia treatment over a number of weeks and/or by administration of monocrotaline. Test substances were applied via nebulization using the Nebutec® or Aeroneb® Pro nebulizer system, and/or by means of powder and/or solution applicators for experimental intratracheal administration (Liquid MicroSprayer®, Dry Powder Insufflator™, MicroSprayer®, Penn-Century Inc., Wyndmoor, PA, USA) or after solid nebulization inserted into the inspiration arm of the ventilation. Compounds were employed as solids or solutions depending on the molecular structure and the technical possibility depending on the experiment. The haemodynamic signals were recorded and evaluated by means of pressure transducers/amplifiers (Combitransducer B. Braun, Melsungen, Germany or CardioMEMS Inc., Atlanta, GA, USA) and Ponemah® or CardioMems® as data aquisition software. After long-term experiments (for example monocrotaline rat), it is also possible to carry out a histological evaluation.
We evaluated the lung-selectivity and duration of effects of comparative example 11 under conscious conditions, in another species, and under a more physiological stimulus for PAP increase. Dogs were exposed to hypoxia for 30 minutes to induce a hypoxia-mediated PAP increase and comparative example 11 (100 μg/kg nominal dose) was applied by inhalation 1, 5, 12, 16 and 24 hours before hypoxia.
The hypoxic dog model was also used to compare different drug candidates wrt duration of action under conscious conditions.

[4] = 100 μg/kg nominal dose inhaled, 1-2 h post inhalation
[5] = 100 μg/kg nominal dose inhaled, 5-6 h post inhalation
[6] = 100 μg/kg nominal dose inhaled, 12-13 h post inhalation
[7] = 100 μg/kg nominal dose inhaled, 16-17 h post inhalation
[8] = 100 μg/kg nominal dose inhaled, 24-25 h post inhalation

Compound `O=C(O)CCCCN(CCc1ccccc1OCc1ccc(CCc2ccccc2)cc1)Cc1ccc(C(=O)O)cc1` [comparative example 1, 4-[((4Carboxybutyl)-{2-[(4-phenethylbenzyl)oxy]phenethyl}amino)methyl]benzoic acid] has an IC50 (rabbit saphenous artery; 0.5 h, 30 min after incubation) of 17 nM, an IC50 (rabbit saphenous artery; preincubation period of 2.5 h) of 3 nM and a fraction unbound [1] of 0.000799.

With `O=C(O)c1ccc(CCN(CCc2ccccc2OCc2ccc(-c3ccc(C(F)(F)F)cc3)cc2Cl)[C@H]2CCCc3nc(C(=O)O)ccc32)cc1` [example 2, (5S)-{[2-(4-Carboxyphenyl)ethyl][2-(2-{[3-chloro-4′-(trifluoromethyl)biphenyl-4-yl]methoxy}phenyl)-ethyl]amino}-5,6,7,8-tetrahydroquinoline-2-carboxylic acid] the “stability of the form under micronization” value (“stability of the form” below) [2] was “monohydrate II with partial amorphization” and the “stability of the form” value ([2]; listed as monohydrate II) was “partial amorphization occurred under several conditions”.

For `O=C(O)c1ccc(CCN(CCc2cc(F)ccc2OCc2ccc(-c3nc4cc(Cl)ccc4o3)cc2)C2CCCc3nc(C(=O)O)ccc32)cc1` (single isomer, unassigned) [comparative example 4, 5-{[2-(4-Carboxyphenyl)ethyl][2-(2-{[4-(5-chloro-1,3-benzoxazol-2-yl)benzyl]oxy}-5-fluorophenyl)-ethyl]amino}-5,6,7,8-tetrahydroquinoline-2-carboxylic acid], the “PAP, absolute values for each animal” value ([3]; 100 μg/kg nominal dose inhaled 1 h before hypoxia, time 4 min) was 9 and 15 and 10, the “PAP, absolute values for each animal” value ([3]; 100 μg/kg nominal dose inhaled 1 h before hypoxia, time 6 min) was 9 and 14 and 11 and the “PAP, absolute values for each animal” value ([3]; 100 μg/kg nominal dose inhaled 1 h before hypoxia, time 8 min) was 10 and 14 and 11. The “PAP, absolute values for each animal” value ([3]; 100 μg/kg nominal dose inhaled 16 h before hypoxia, time 22 min) was 23 and 26 and 13, the “PAP, absolute values for each animal” value ([3]; 100 μg/kg nominal dose inhaled 16 h before hypoxia, time 24 min) was 23 and 26 and 14 and the “PAP, absolute values for each animal” value ([3]; 100 μg/kg nominal dose inhaled 16 h before hypoxia, time 26 min) was 21 and 32 and 15. The “PAP, absolute values for each animal” value ([3]; 100 μg/kg nominal dose inhaled 16 h before hypoxia, time 28 min) was 22 and 29 and 17, the “PAP, absolute values for each animal” value ([3]; 100 μg/kg nominal dose inhaled 16 h before hypoxia, time 30 min) was 26 and 31 and 18 and the “PAP, absolute values for each animal” value ([3]; 100 μg/kg nominal dose inhaled 16 h before hypoxia, time 32 min) was 24 and 29 and 16. For the same compound, the “PAP, absolute values for each animal” value ([3]; 100 μg/kg nominal dose inhaled 16 h before hypoxia, time 34 min) was 23 and 32 and 21, the “PAP, absolute values for each animal” value ([3]; 100 μg/kg nominal dose inhaled 16 h before hypoxia, time 36 min) was 20 and 29 and 19 and the “PAP, absolute values for each animal” value ([3]; 100 μg/kg nominal dose inhaled 16 h before hypoxia, time 38 min) was 25 and 29 and 12. For the same compound, the “PAP, absolute values for each animal” value ([3]; 100 μg/kg nominal dose inhaled 16 h before hypoxia, time 40 min) was 25 and 30 and 22, the “PAP, absolute values for each animal” value ([3]; 100 μg/kg nominal dose inhaled 16 h before hypoxia, time 42 min) was 12 and 21 and 8 and the “PAP, absolute values for each animal” value ([3]; 100 μg/kg nominal dose inhaled 16 h before hypoxia, time 44 min) was 9 and 17 and 7. For the same compound, the “PAP, absolute values for each animal” value ([3]; 100 μg/kg nominal dose inhaled 16 h before hypoxia, time 46 min) was 9 and 16 and 8, the “PAP, absolute values for each animal” value ([3]; 100 μg/kg nominal dose inhaled 16 h before hypoxia, time 48 min) was 6 and 16 and 8 and the “PAP, absolute values for each animal” value ([3]; 100 μg/kg nominal dose inhaled 16 h before hypoxia, time 50 min) was 6 (2×) and 15. The “PAP, absolute values for each animal” value ([3]; 100 μg/kg nominal dose inhaled 24 h before hypoxia, time 0 min) was 10 and 16 and 15, the “PAP, absolute values for each animal” value ([3]; 100 μg/kg nominal dose inhaled 24 h before hypoxia, time 2 min) was 12 and 16 and 17 and the “PAP, absolute values for each animal” value ([3]; 100 μg/kg nominal dose inhaled 24 h before hypoxia, time 4 min) was 10 and 15 and 16. The “PAP, absolute values for each animal” value ([3]; 100 μg/kg nominal dose inhaled 24 h before hypoxia, time 6 min) was 10 and 13 and 14, the “PAP, absolute values for each animal” value ([3]; 100 μg/kg nominal dose inhaled 24 h before hypoxia, time 8 min) was 9 and 14 and 12 and the “PAP, absolute values for each animal” value ([3]; 100 μg/kg nominal dose inhaled 24 h before hypoxia, time 10 min) was 10 and 15 and 14. For the same compound, the “PAP, absolute values for each animal” value ([3]; 100 μg/kg nominal dose inhaled 24 h before hypoxia, time 12 min) was 18 and 22 and 14, the “PAP, absolute values for each animal” value ([3]; 100 μg/kg nominal dose inhaled 24 h before hypoxia, time 14 min) was 18 and 19 and 15 and the “PAP, absolute values for each animal” value ([3]; 100 μg/kg nominal dose inhaled 24 h before hypoxia, time 16 min) was 20 and 23 and 17. The “PAP, absolute values for each animal” value ([3]; 100 μg/kg nominal dose inhaled 24 h before hypoxia, time 18 min) was 23 and 25 and 17, the “PAP, absolute values for each animal” value ([3]; 100 μg/kg nominal dose inhaled 24 h before hypoxia, time 20 min) was 23 and 24 and 21 and the “PAP, absolute values for each animal” value ([3]; 100 μg/kg nominal dose inhaled 24 h before hypoxia, time 22 min) was 22 and 26 and 17. The “PAP, absolute values for each animal” value ([3]; 100 μg/kg nominal dose inhaled 24 h before hypoxia, time 24 min) was 24 and 25 and 18, the “PAP, absolute values for each animal” value ([3]; 100 μg/kg nominal dose inhaled 24 h before hypoxia, time 26 min) was 23 and 25 and 19 and the “PAP, absolute values for each animal” value ([3]; 100 μg/kg nominal dose inhaled 24 h before hypoxia, time 28 min) was 22 and 27 and 18. The “PAP, absolute values for each animal” value ([3]; 100 μg/kg nominal dose inhaled 24 h before hypoxia, time 30 min) was 23, the “efficacy (PAP decrease), head to head” value ([3]; 100 μg/kg nominal dose inhaled, up to 6 hrs after inhalation) was “comparable efficacy” and the “mPAP decrease during Hypoxia, each animal” value [3, 4] was −11.69 mmHg and −10.19 mmHg and −11.38 mmHg. The “mPAP decrease during Hypoxia, mean +/− SEM” value [3, 4] was −11.08 ± 0.46 mmHg, the “mPAP decrease during Hypoxia, each animal” value [3, 5] was −14.81 mmHg and −6.69 mmHg and −8.00 mmHg and the “mPAP decrease during Hypoxia, mean +/− SEM” value [3, 5] was −9.83 ± 2.52 mmHg. The “mPAP decrease during Hypoxia, each animal” value [3, 6] was −0.50 mmHg and −4.63 mmHg and −0.56 mmHg, the “mPAP decrease during Hypoxia, mean +/− SEM” value [3, 6] was −1.90 ± 1.36 mmHg and the “mPAP decrease during Hypoxia, each animal” value [3, 7] was 0.81 mmHg and −0.56 mmHg and −1.06 mmHg. For the same compound, the “mPAP decrease during Hypoxia, mean +/− SEM” value [3, 7] was −0.27 ± 0.56 mmHg, the “mPAP decrease during Hypoxia, each animal” value [3, 8] was −2.56 mmHg and −3.13 mmHg and −2.25 mmHg and the “mPAP decrease during Hypoxia, mean +/− SEM” value [3, 8] was −2.65 ± 0.26 mmHg.

With `O=C(O)c1ccc(CCN(CCc2ccccc2OCc2ccc(-c3ccc(C(F)(F)F)cc3)cc2Cl)[C@H]2CCCc3nc(C(=O)O)ccc32)cc1` [example 4, (5S)-{[2-(4-Carboxyphenyl)ethyl][2-(2-{[3-chloro-4′-(trifluoromethyl)biphenyl-4-yl]methoxy}phenyl)-ethyl]amino}-5,6,7,8-tetrahydroquinoline-2-carboxylic acid] the “stability of the form” value ([2]; listed as monohydrate I) was “stable under micronization conditions”.
